The results in this text go back to patent publication US8492384B2 (Korea Institute of Science and Technology, priority 2008, dated 2013).

In one experiment the target is T1, α1G T-type calcium channels (Homo sapiens, UniProt O43497).
T1 construct: host or cells: HEK293
T1 sequence (O43497 whole entry): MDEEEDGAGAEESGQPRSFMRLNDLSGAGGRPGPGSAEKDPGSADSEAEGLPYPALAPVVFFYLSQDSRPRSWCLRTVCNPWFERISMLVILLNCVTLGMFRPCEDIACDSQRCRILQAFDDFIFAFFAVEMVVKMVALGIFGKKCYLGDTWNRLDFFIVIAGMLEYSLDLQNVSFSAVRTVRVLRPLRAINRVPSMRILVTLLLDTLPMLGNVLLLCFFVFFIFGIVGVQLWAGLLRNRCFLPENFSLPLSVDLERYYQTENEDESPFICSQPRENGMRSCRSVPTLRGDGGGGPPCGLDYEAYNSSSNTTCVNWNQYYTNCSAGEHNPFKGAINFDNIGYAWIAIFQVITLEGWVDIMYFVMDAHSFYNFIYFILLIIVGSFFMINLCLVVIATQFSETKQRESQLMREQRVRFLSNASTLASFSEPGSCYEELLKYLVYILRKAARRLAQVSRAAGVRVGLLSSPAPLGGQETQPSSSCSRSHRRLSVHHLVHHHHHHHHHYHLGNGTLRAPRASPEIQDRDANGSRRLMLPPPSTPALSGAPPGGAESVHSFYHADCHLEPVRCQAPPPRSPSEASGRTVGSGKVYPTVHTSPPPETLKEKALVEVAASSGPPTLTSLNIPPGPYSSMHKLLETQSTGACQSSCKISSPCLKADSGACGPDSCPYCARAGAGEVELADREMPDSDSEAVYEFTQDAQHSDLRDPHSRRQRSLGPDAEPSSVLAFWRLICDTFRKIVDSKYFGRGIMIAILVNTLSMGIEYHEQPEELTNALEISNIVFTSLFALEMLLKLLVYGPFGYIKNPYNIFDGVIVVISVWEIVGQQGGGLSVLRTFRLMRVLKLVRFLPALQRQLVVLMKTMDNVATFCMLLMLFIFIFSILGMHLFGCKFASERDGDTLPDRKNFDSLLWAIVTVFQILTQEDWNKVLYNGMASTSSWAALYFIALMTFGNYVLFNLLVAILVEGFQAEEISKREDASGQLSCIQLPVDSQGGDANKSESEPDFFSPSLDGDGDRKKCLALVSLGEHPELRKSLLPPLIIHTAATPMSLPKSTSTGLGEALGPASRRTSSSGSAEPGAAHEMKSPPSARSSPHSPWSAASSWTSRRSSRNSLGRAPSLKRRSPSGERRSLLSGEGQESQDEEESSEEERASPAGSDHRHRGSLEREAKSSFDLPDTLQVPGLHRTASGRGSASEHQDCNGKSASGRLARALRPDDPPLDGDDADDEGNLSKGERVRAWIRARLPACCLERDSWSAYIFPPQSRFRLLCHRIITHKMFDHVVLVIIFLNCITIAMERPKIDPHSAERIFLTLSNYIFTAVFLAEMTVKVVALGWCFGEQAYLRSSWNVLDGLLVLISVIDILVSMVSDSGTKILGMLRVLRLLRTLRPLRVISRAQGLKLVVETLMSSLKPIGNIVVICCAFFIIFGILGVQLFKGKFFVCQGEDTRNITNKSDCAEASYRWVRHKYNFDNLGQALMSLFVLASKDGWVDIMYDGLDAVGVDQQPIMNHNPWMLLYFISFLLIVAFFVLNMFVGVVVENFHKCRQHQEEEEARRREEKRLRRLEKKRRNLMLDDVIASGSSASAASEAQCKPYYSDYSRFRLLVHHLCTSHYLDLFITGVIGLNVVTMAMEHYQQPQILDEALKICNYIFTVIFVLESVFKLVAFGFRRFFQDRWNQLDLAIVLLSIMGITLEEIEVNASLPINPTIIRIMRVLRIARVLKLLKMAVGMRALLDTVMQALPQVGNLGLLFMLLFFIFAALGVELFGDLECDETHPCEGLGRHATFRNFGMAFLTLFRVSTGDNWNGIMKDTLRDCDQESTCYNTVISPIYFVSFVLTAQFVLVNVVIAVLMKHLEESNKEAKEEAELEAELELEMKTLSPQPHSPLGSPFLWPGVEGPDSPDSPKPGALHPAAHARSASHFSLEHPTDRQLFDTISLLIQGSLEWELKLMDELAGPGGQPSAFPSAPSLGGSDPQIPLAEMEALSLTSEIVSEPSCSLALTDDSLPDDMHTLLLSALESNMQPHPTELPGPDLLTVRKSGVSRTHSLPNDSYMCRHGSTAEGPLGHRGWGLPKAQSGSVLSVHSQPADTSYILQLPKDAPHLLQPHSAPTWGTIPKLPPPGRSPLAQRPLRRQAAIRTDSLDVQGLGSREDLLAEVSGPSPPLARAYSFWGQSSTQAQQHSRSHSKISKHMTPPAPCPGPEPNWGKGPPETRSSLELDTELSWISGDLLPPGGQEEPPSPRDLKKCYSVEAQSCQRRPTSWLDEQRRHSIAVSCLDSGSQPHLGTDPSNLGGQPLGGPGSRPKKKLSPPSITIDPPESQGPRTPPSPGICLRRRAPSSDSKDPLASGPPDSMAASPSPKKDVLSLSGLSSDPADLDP
Briefly: T-type calcium channel activity using the FDSS6000 (HTS, Fluo-3/AM, KCl-induced intracellular calcium change). The settings on record: percent inhibition at 10 μM; HEK293 cells stably expressing α1G T-type calcium channels and Kir2.1; KCl 75 mM activation. It is filed as cell-based. As to the method: (§1) The novel compounds of the present invention presented as the formula 1 were tested for their antagonistic activities against T-type calcium channels using the methods described below. More specifically, the synthesized compounds were screened as follows: First, as a primary screening, the compounds having 40% or higher of antagonistic activities against T-type calcium channels were selected using the FDSS6000, a high throughput screening (HTS) device. Then, as a secondary screening, the IC50 (effective inhibitory concentration) values were obtained using the electrophysiological methods.
1) Methods for the Measurements of T-Type Calcium Channel Activity Using the FDSS6000
12 to 24 hours prior to the FDSS-based HTS assay, HEK293 cells stably expressing both α1G T-type calcium channels and Kir2.1 channels (α1G cell line: KCTC 10519BP, KRIBB (Korea Research Institute of Bioscience and Biotechnology) (GENE BANK) were seeded onto the 96-well plate coated with poly-L-lysine (0.05 mg/mL) at a density of 4×10^4 cells/well using a cell distributor (Titertek, USA). On the following day, the cells attached onto the 96-well plate were washed three times with a HEPES-buffered solution (150 mM NaCl, 5 mM KCl, 1 mM MgCl2, 2 mM CaCl2, 10 mM HEPES, 10 mM glucose, and pH 7.4) using an automatic 96-well plate washer (BioTek, USA), and then labeled with a fluorescent calcium indicator dye, Fluo-3/AM (5 μM) and 0.001% Pluronic F-127 in a HEPES-buffered solution at room temperature for 1 hour and then washed again with a HEPES-buffered solution twice. 10 minutes prior to the FDSS6000 measurements, the cells was washed with a HEPES-buffered solution containing 10 mM CaCl2 once and the final volume was adjusted.
In addition to the 96-well plates with cells, the two drug plates were prepared: one containing KCl (final concentration of 75 mM) for the activation of T-type calcium channels, and the other containing testing compounds (blocking agents of T-type calcium channels). Since most cell-based HTS devices are provided with a liquid application system for drug injection but not with a liquid absorption system, the KCl solution and the blocking agents for screening were prepared at concentrations five times higher than the final concentrations in the 10 mM CaCl2 HEPES-buffered solution, and then diluted in the cell plate, and the activities were measured. The specific method of the FDSS6000 measurements is as follows: For the FDSS6000 measurements, after the 20-sec baseline recordings, cells were preincubated with drugs for 75 seconds and the change in intracellular calcium concentration induced by KCl was measured. The percent inhibition by a test compound was calculated as integrated values of 340/380 fluorescent ratio of untreated and drug-treated cells. The control drug was 10 μM of Mibefradil®.
In details, cells were selectively exposed to 340 nm and 380 nm light excited by 4 xenon lamps installed in FDSS6000 using a computer-controlled filter wheel. The emitter fluorescence light through a 515 nm long-pass filter was passed by a freezing digital CCD camera mounted on the device. Data were collected every 1.23 seconds, and an average value of 340/380 fluorescent ratio for each well was obtained using a digital fluorescent analyzer. Data acquisition and analysis were performed using a program provided by Hamamatsu Photonics.
Consider “1-N-{2-[4-(4-chlorophenyl) (phenyl)methylpiperazin-1-yl]ethyl}carbamoylethyl-2-methylimidazole [Compound No. 93]”, for which the “FDSS (%, 10 μM)” value amounted to 43.04%.

In the case of “1-N-{2-[4-(2,3-dimethylphenyl)(phenyl)methylpiperazin-1-yl]ethyl}carbamoylethyl-4-phenylimidazole [Compound No. 56]”, the “FDSS (%, 10 μM)” value is listed as 35.38%.

Consider “1-N-{2-[4-(4-chlorophenyl) (phenyl)methylpiperazin-1-yl]ethyl}carbamoylethyl-4-methylimidazole [Compound No. 94]”, for which the “FDSS (%, 10 μM)” value amounted to 55.99%.

Still in this experiment, the particulars now being: percent inhibition at 10 μM; HEK293 cells stably expressing α1G T-type calcium channels and Kir2.1; KCl 75 mM activation; read-out: FDSS (%, 10 μM).
On to `COc1ccc(N2CCN(CCNC(=O)CCn3cnc(-c4ccccc4)c3)CC2)cc1` [Compound No. 75, 1-N-{2-[4-(4-methoxyphenyl)piperazin-1-yl]ethyl}carbamoylethyl-4-phenylimidazole], for which the inhibition at 10 µM is 33%.

As for `Cc1cccc(CN2CCN(CCNC(=O)CCn3ccnc3-c3ccccc3)CC2)c1` [Compound No. 68, 1-N-{2-[4-(3-methylbenzyl)piperazin-1-yl]ethyl}carbamoylethyl-2-phenylimidazole], the inhibition at 10 µM was determined as 31.1%.

Turning to `O=C(CCn1ccnc1-c1ccccc1)N1CCN(c2cccc(Cl)c2)CC1` [Compound No. 26, 1-N-[4-(3-chlorophenyl)piperazin-1-yl]carbonylethyl-2-phenylimidazole], the inhibition at 10 µM stood at 35.1%.

On to `CCN1CCN(C(=O)CCn2ccnc2-c2ccccc2)CC1` [Compound No. 23, 1-N-(4-ethylpiperazin-1-yl)carbonylethyl-2-phenylimidazole], for which the inhibition at 10 µM was found to be 23.4%.

With `Cc1cccc(N2CCN(C(=O)CCn3ccnc3-c3ccccc3)CC2)c1C` [Compound No. 15, 1-N-[4-(2,3-dimethylphenyl)piperazin-1-yl]carbonylethyl-2-phenylimidazole], the inhibition at 10 µM worked out at 34.4%.

As for `O=C(CCn1cnc(-c2ccccc2)c1)N1CCN(Cc2ccccc2)CC1` [Compound No. 2, 1-N-(4-benzylpiperazin-1-yl)carbonylethyl-4-phenylimidazole], the inhibition at 10 µM stood at 33.5%.

As for `Cc1ccc(N2CCN(CCNC(=O)CCn3ccnc3-c3ccccc3)CC2)c(C)c1` [Compound No. 62, 1-N-{2-[4-(2,4-dimethylphenyl)piperazin-1-yl]ethyl}carbamoylethyl-2-phenylimidazole], the inhibition at 10 µM turned out to be 40.5%.

Consider `Cc1ccc(N2CCN(C(=O)CCn3cnc(C)c3)CC2)c(C)c1` [Compound No. 38, 1-N-[4-(2,4-dimethylphenyl)piperazin-1-yl]carbonylethyl-4-methylimidazole], for which the inhibition at 10 µM stood at 33.8%.

On to `Cc1cccc(CN2CCN(CCNC(=O)CCn3cnc(-c4ccccc4)c3)CC2)c1` [Compound No. 67, 1-N-{2-[4-(3-methylbenzyl)piperazin-1-yl]ethyl}carbamoylethyl-4-phenylimidazole], for which the inhibition at 10 µM was found to be 39.2%.

Take `Cc1nccn1CCC(=O)N1CCN(C(c2ccccc2)c2ccccc2)CC1` [Compound No. 35, 1-N-(4-diphenylmethylpiperazin-1-yl)carbonylethyl-2-methylimidazole]: the inhibition at 10 µM was 35%.

In the case of `O=C(CCn1ccnc1-c1ccccc1)N1CCN(c2ccccc2)CC1` [Compound No. 54, 1-N-(4-phenylpiperazin-1-yl)carbonylethyl-2-phenylimidazole], the inhibition at 10 µM amounted to 24.2%.

As to `O=C(CCn1cnc(-c2ccccc2)c1)NCCN1CCN(Cc2ccc(F)cc2)CC1` [Compound No. 70, 1-N-{2-[4-(4-fluorobenzyl)piperazin-1-yl]ethyl}carbamoylethyl-4-phenylimidazole], the inhibition at 10 µM came to 36.7%.

For `O=C(CCn1cnc(-c2ccccc2)c1)N1CCN(c2ccccc2)CC1` [Compound No. 53, 1-N-(4-phenylpiperazin-1-yl)carbonylethyl-4-phenylimidazole], the inhibition at 10 µM amounted to 42.2%.

On to `Cc1ccc(N2CCN(C(=O)CCn3ccnc3-c3ccccc3)CC2)c(C)c1` [Compound No. 16, 1-N-[4-(2,4-dimethylphenyl)piperazin-1-yl]carbonylethyl-2-phenylimidazole], for which the inhibition at 10 µM was 34.3%.

`O=C(CCn1cnc(-c2ccccc2)c1)NCCN1CCN(c2cccc(Cl)c2)CC1` [Compound No. 79, 1-N-{2-[4-(3-chlorophenyl)piperazin-1-yl]ethyl}carbamoylethyl-4-phenylimidazole]: the inhibition at 10 µM was found to be 36.9%.

On to `Cc1ccc(N2CCN(CCNC(=O)CCn3cnc(-c4ccccc4)c3)CC2)c(C)c1` [Compound No. 61, 1-N-{2-[4-(2,4-dimethylphenyl)piperazin-1-yl]ethyl}carbamoylethyl-4-phenylimidazole], for which the inhibition at 10 µM was found to be 44.9%.

Take `COc1ccc(CN2CCN(CCNC(=O)CCn3ccnc3C)CC2)cc1` [Compound No. 98, 1-N-{2-[4-(4-methoxybenzyl)piperazin-1-yl]ethyl}carbamoylethyl-2-methylimidazole]: the inhibition at 10 µM came to 33.8%.

For the compound `Cc1nccn1CCC(=O)NCCN1CCN(C(c2ccccc2)c2ccccc2)CC1` [Compound No. 96, 1-N-[2-(4-diphenylmethylpiperazin-1-yl)ethyl]carbamoylethyl-2-methylimidazole], the inhibition at 10 µM came to 41.4%.

As for `COc1ccc(N2CCN(C(=O)CCn3cnc(-c4ccccc4)c3)CC2)cc1` [Compound No. 27, 1-N-[4-(4-methoxyphenyl)piperazin-1-yl]carbonylethyl-4-phenylimidazole], the inhibition at 10 µM was determined as 37.8%.

Consider `O=C(CCn1cnc(-c2ccccc2)c1)NCCN1CCN(c2ccc(F)cc2)CC1` [Compound No. 73, 1-N-{2-[4-(4-fluorophenyl)piperazin-1-yl]ethyl}carbamoylethyl-4-phenylimidazole], for which the inhibition at 10 µM is 41.7%.

Regarding `O=C(CCn1cnc(-c2ccccc2)c1)NCCN1CCN(c2ccccc2)CC1` [Compound No. 71, 1-N-[2-(4-phenylpiperazin-1-yl)ethyl]carbamoylethyl-4-phenylimidazole], the inhibition at 10 µM is 30.7%.

On to `O=C(CCn1ccnc1-c1ccccc1)N1CCN(Cc2ccc(F)cc2)CC1` [Compound No. 21, 1-N-[4-(4-fluorobenzyl)piperazin-1-yl]carbonylethyl-2-phenylimidazole], for which the inhibition at 10 µM was 36.8%.

The next experiment concerns the target T1, α1G T-type calcium channels. Description: T-type calcium channel activity using electrophysiological whole-cell patch-clamp technique. It is filed as cell-based. The settings on record: HEK293 cells expressing α1G T-type calcium channels. How it is done: as §1
2) Methods for the Measurements of T-Type Calcium Channel Activity Using an Electrophysiological Whole-Cell Patch-Clamp Technique
HEK293 cells stably expressing T-type calcium channels were cultured in DMEM (Dulbecco's modified Eagle's medium) containing 10% (v/v) fetal bovine serum and 1% penicillin/streptomycin (v/v) in humidified 5% CO2 at 36.5° C. Cells expressing α1GT-type calcium channels were selected using G-418 (0.5 mg/mL) in the culture medium. The culture medium was replaced with a fresh one every 3-4 days, and cells were subcultured every week.
Cells were seeded onto the coverglass coated with poly-L-lysine (0.5 mg/mL) for the measurements of T-type calcium channel activity 2-7 days prior to the recordings. Whole-cell recordings of T-type calcium channel currents were performed using an EPC-9 patch clamp amplifier (HEKA, Germany). Whole-cell currents were recorded using micropipettes with resistance of 3-4 MΩ with the pipette (intracellular) solution containing (in mM): 130 KCl, 11 EGTA, 5 Mg-ATP, and 10 HEPES, pH to 7.4 and with the bath (extracellular) solution containing (in mM): 140 NaCl, 2 CaCl2, and 10 HEPES, pH to 7.4. The inward currents of T-type calcium channels were evoked by the test pulses of −30 mV for 50 ms at a holding potential of −100 mV every 10 seconds.
Each compound was dissolved in dimethylsulfoxide (DMSO) as 10 mM stock solutions and diluted in the bath solution to 10 μM (containing 0.1% DMSO). […] More specifically, each compound was perfused to the bath for about 30-60 seconds, and the inhibition of the inward peak currents by a test compound was calculated as a percent inhibition from which the IC50 values were determined.
Turning to “1-N-{2-[4-(4-chlorophenyl) (phenyl)methylpiperazin-1-yl]ethyl}carbamoylethyl-2-methylimidazole [Compound No. 93]”, the IC50 came to 9.55 ± 8.7 µM.

For the compound `O=C(CCn1cnc(-c2ccccc2)c1)N1CCN(c2ccccc2)CC1` [Compound No. 53, 1-N-(4-phenylpiperazin-1-yl)carbonylethyl-4-phenylimidazole], the IC50 stood at 0.00046 µM.

Consider “1-N-{2-[4-(4-chlorophenyl) (phenyl)methylpiperazin-1-yl]ethyl}carbamoylethyl-4-methylimidazole [Compound No. 94]”, for which the IC50 amounted to 6.77 ± 1.45 µM.

Take `Cc1nccn1CCC(=O)NCCN1CCN(C(c2ccccc2)c2ccccc2)CC1` [Compound No. 96, 1-N-[2-(4-diphenylmethylpiperazin-1-yl)ethyl]carbamoylethyl-2-methylimidazole]: the IC50 came to 0.39 ± 0.28 µM.
